Test results published in ChEMBL document CHEMBL1137259, “Tubeimoside V (1), a new cyclic bisdesmoside from tubers of Bolbostemma paniculatum, functions by inducing apoptosis in human glioblastoma U87MG cells” (Bioorg Med Chem Lett, 2006).
pIC50: −log10 of the molar value. Activity calls are given as the source filed them. No cut-off for these calls is given here.

Assays:
U-87 MG [1] = assay: Cell cycle arrest in U87MG cells by accumulation at S phase at 7.0 uM after 24 hrs; format: functional, Homo sapiens, U-87MG ATCC
U-87 MG [2] = assay: Cell cycle arrest in U87MG cells by accumulation at G2/M phase at 7.0 uM after 12 hrs; format: functional, Homo sapiens, U-87MG ATCC
U-87 MG [3] = assay: Cell cycle arrest in U87MG cells by accumulation at S phase at 7.0 uM after 12 hrs; format: functional, Homo sapiens, U-87MG ATCC
U-87 MG [4] = assay: Cell cycle arrest in U87MG cells by accumulation at S phase at 2.6 uM after 12 hrs; format: functional, Homo sapiens, U-87MG ATCC
U-87 MG [5] = assay: Induction of apoptosis measured as down regulation of Bcl2 expression in human U87MG cell line by Western blot analysis at 7.0 uM after 6 hrs; format: functional, cell-based; conditions: U-87MG ATCC
U-87 MG [6] = assay: Cell cycle arrest in U87MG cells by accumulation at S phase at 3.6 uM after 24 hrs; format: functional, Homo sapiens, U-87MG ATCC
U-87 MG [7] = assay: Cell cycle arrest in U87MG cells by accumulation at G0/G1 phase at 3.6 uM after 24 hrs; format: functional, Homo sapiens, U-87MG ATCC
U-87 MG [8] = assay: Cell cycle arrest in U87MG cells by accumulation at G0/G1 phase at 7.0 uM after 24 hrs; format: functional, Homo sapiens, U-87MG ATCC
U-87 MG [9] = assay: Induction of apoptosis assessed as phosphatidylserine externalization in human U87MG cell line at 7.0 uM after 24 hrs by annexinV/PI assay; format: functional, cell-based; conditions: U-87MG ATCC
U-87 MG [10] = assay: Cell cycle arrest in U87MG cells by accumulation at G2/M phase at 7.0 uM after 24 hrs; format: functional, Homo sapiens, U-87MG ATCC
U-87 MG [11] = assay: Cell cycle arrest in U87MG cells by accumulation at SubG1 phase at 2.6 uM after 12 hrs; format: functional, Homo sapiens, U-87MG ATCC
U-87 MG [12] = assay: Induction of apoptosis measured as down regulation of Bcl2 expression in human U87MG cell line by Western blot analysis at 7.0 uM after 24 hrs; format: functional, cell-based; conditions: U-87MG ATCC
U-87 MG [13] = assay: Cell cycle arrest in U87MG cells by accumulation at SubG1 phase at 3.6 uM after 12 hrs; format: functional, Homo sapiens, U-87MG ATCC
U-87 MG [14] = assay: Antiproliferative activity against human U87MG cell line by MTT assay; format: functional, cell-based, U-87MG ATCC
U-87 MG [15] = assay: Cell cycle arrest in U87MG cells by accumulation at G0/G1 phase at 7.0 uM after 12 hrs; format: functional, Homo sapiens, U-87MG ATCC
U-87 MG [16] = assay: Induction of apoptosis measured as up regulation of Bax expression in human U87MG cell line by Western blot analysis at 7.0 uM after 24 hrs; format: functional, cell-based; conditions: U-87MG ATCC
U-87 MG [17] = assay: Cell cycle arrest in U87MG cells by accumulation at G0/G1 phase at 2.6 uM after 24 hrs; format: functional, Homo sapiens, U-87MG ATCC
U-87 MG [18] = assay: Cell cycle arrest in U87MG cells by accumulation at S phase at 3.6 uM after 12 hrs; format: functional, Homo sapiens, U-87MG ATCC
U-87 MG [19] = assay: Cell cycle arrest in U87MG cells by accumulation at S phase at 2.6 uM after 24 hrs; format: functional, Homo sapiens, U-87MG ATCC
U-87 MG [20] = assay: Cell cycle arrest in U87MG cells by accumulation at G2/M phase at 2.6 uM after 12 hrs; format: functional, Homo sapiens, U-87MG ATCC
U-87 MG [21] = assay: Induction of apoptosis measured as chromatin condensation in human U87MG cell line at 7.0 uM after 24 hrs by hoechst 33342 staining; format: functional, cell-based; conditions: U-87MG ATCC
U-87 MG [22] = assay: Cell cycle arrest in U87MG cells by accumulation at G2/M phase at 3.6 uM after 24 hrs; format: functional, Homo sapiens, U-87MG ATCC
U-87 MG [23] = assay: Cell cycle arrest in U87MG cells by accumulation at G2/M phase at 3.6 uM after 12 hrs; format: functional, Homo sapiens, U-87MG ATCC
U-87 MG [24] = assay: Cell cycle arrest in U87MG cells by accumulation at SubG1 phase at 7.0 uM after 24 hrs; format: functional, Homo sapiens, U-87MG ATCC
U-87 MG [25] = assay: Cell cycle arrest in U87MG cells by accumulation at G0/G1 phase at 2.6 uM after 12 hrs; format: functional, Homo sapiens, U-87MG ATCC
U-87 MG [26] = assay: Cell cycle arrest in U87MG cells by accumulation at SubG1 phase at 2.6 uM after 24 hrs; format: functional, Homo sapiens, U-87MG ATCC
U-87 MG [27] = assay: Cell cycle arrest in U87MG cells by accumulation at SubG1 phase at 3.6 uM after 24 hrs; format: functional, Homo sapiens, U-87MG ATCC
U-87 MG [28] = assay: Cell cycle arrest in U87MG cells by accumulation at SubG1 phase at 7.0 uM after 12 hrs; format: functional, Homo sapiens, U-87MG ATCC
U-87 MG [29] = assay: Induction of apoptosis measured as up regulation of Bax expression in human U87MG cell line by Western blot analysis at 7.0 uM after 6 hrs; format: functional, cell-based; conditions: U-87MG ATCC
U-87 MG [30] = assay: Cell cycle arrest in U87MG cells by accumulation at G2/M phase at 2.6 uM after 24 hrs; format: functional, Homo sapiens, U-87MG ATCC
U-87 MG [31] = assay: Cell cycle arrest in U87MG cells by accumulation at G0/G1 phase at 3.6 uM after 12 hrs; format: functional, Homo sapiens, U-87MG ATCC

With `C[C@@H]1O[C@H]2O[C@@H]3[C@H](OC[C@@H](O)[C@H]3O)OC(=O)[C@]34CCC(C)(C)CC3C3=CCC5[C@@]6(C)C[C@H](O)[C@H](O[C@@H]7O[C@H](CO)[C@@H](O)[C@H](O)[C@H]7O[C@H]7O[C@@H](COC(=O)C[C@](C)(O)CC(=O)O[C@@H]1[C@@H](O[C@@H]1OC[C@@H](O)[C@H](O)[C@H]1O)[C@H]2O)[C@H](O)[C@@H](O)[C@@H]7O)[C@@](C)(CO)C6CC[C@@]5(C)[C@]3(C)CC4` (stereo partly drawn) [TUBEIMOSIDE V] the Activity (U-87 MG [1]) was 37.1%, the Activity (U-87 MG [2]) was 14.1% and the Activity (U-87 MG [3]) was 32.6%. The Activity (U-87 MG [4]) was 27.6%, the Activity (U-87 MG [5]) was “Active” and the Activity (U-87 MG [6]) was 34.2%. The Activity (U-87 MG [7]) was 53.5%, the Activity (U-87 MG [8]) was 53.3% and the Activity (U-87 MG [9]) was “Active”. The Activity (U-87 MG [10]) was 9.6%, the Activity (U-87 MG [11]) was 4.1% and the Activity (U-87 MG [12]) was “Active”. It also gave an Activity (U-87 MG [13]) of 8.9%, an IC25 (U-87 MG [14]) of 2.6 µM and a pIC50 (U-87 MG [14]) of 5.44. For the same compound, the IC75 (U-87 MG [14]) was 7 µM, the Activity (U-87 MG [15]) was 53.3% and the Activity (U-87 MG [16]) was “Active”. It also gave an Activity (U-87 MG [17]) of 51.3%, an Activity (U-87 MG [18]) of 31.4% and an Activity (U-87 MG [19]) of 31%. For the same compound, the Activity (U-87 MG [20]) was 22.3%, the Activity (U-87 MG [21]) was “Active” and the Activity (U-87 MG [22]) was 12.3%. For the same compound, the Activity (U-87 MG [23]) was 17.6%, the Activity (U-87 MG [24]) was 42.3% and the Activity (U-87 MG [25]) was 50.1%. For the same compound, the Activity (U-87 MG [26]) was 9.1%, the Activity (U-87 MG [27]) was 20.8% and the Activity (U-87 MG [28]) was 18.3%. The Activity (U-87 MG [29]) was “Active”, the Activity (U-87 MG [30]) was 17.7% and the Activity (U-87 MG [31]) was 51%.
